Assay results taken from patent US20210230101A1, “COMPOUNDS FOR TREATING DENGUE VIRUS INFECTIONS AND OTHER INFECTIONS” (Dana-Farber Cancer Institute, Inc., priority 2018, published 2021).
Where two headings read alike, the source gives them in different places.

Key:
His6-tagged DENV2 sE2 = His6-tagged DENV2 sE2 (Dengue virus type 2, UniProt P14340); assay: AlphaScreen competition assay (GNF2-biotin probe vs. envelope protein); format: binding, Dengue virus 2 (DENV2)
From the text: Known DENV inhibitors to develop an AlphaScreen assay designed to identify compounds that compete for binding on envelop protein. The AlphaScreen is a bead-based proximity assay that permits measurement of biomolecular interactions of pico- to milli-molar affinities in microplate format. Following excitation of donor beads, energy is transferred to acceptor beads if analytes conjugated to donor and acceptor beads interact. […] We performed cross-titration experiments to optimize the molar concentrations of the probe (GNF2-biotin) and envelope glycoprotein for the assay. We also tested different orders of the addition of the assay components to achieve the best signal-to-noise ratio.

[1] = Pharmacokinetic (PK) studies; conditions: mouse, in vivo
Method: FIG. 3. Pharmacokinetic (PK) data for S4105. The compound has a volume of distribution of 0.06 L/kg, which is essentially the blood volume of a mouse, implying that the compound may be sequestered in the plasma. […] The intraperitoneal (IP) dose was well absorbed. 8 hours after the IP dose of 20 mg/kg the plasma concentration for the three mice ranged from 75-200 μM. Even if the compound is 99.95% plasma protein bound, this would still give a free fraction of about 50 nM.
FIG. 4. PK data for ZNL-01-132. The compound has a long half-life in plasma of 5-6 hours. After IP dosing at 20 mg/kg high concentrations were achieved and 8 hours post dose the levels were approximately 2 μM.
PK studies were performed on compounds S4105 and ZNL-01-132.

AmpC β-lactamase = molecular target: T1, AmpC β-lactamase (Escherichia coli, UniProt P00811); assay: AmpC beta-lactamase non-specific enzyme inhibition assay; format: biochemical; conditions: IC50/μM vs. AmpC
T1 construct: Shoichet lab (UCSF), gift
T1 sequence (P00811 20-377): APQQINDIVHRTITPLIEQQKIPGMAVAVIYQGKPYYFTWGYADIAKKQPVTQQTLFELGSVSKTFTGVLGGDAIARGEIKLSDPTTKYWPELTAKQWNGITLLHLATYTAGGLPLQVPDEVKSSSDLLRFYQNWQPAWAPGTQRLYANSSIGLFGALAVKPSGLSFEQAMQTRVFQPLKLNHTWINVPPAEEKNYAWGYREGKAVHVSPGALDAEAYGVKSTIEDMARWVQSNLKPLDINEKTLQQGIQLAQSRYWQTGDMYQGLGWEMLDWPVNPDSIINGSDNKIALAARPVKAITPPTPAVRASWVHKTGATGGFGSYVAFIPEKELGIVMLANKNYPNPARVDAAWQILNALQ
Method: AmpC beta-lactamase assay. The AmpC β-lactamase was a kind gift from the Shoichet lab (UCSF). The inhibitor was serially diluted (two-fold dilution series from 100 μM) and pre-incubated with 10 nM enzyme in working buffer (50 mM potassium phosphate, pH 7.0) at room temperature for 5 min. Nitrocefin (100 μM, VWR) was added to the solution and carefully mixed. Absorbance of the final mixture was immediately monitored at 470 nm for 3 min.
For both AmpC and MDH assays, the final concentration of DMSO was 2% for all samples. All assays were repeated in the presence of 0.01% Triton X-100. IC50 values of 3-110-22 presented in Table 2 are representative data from two independent experiments; values for the other lead compounds were measured once for each enzymatic assay.

[2] = Cytotoxicity (CellTiter-Glo); format: cell-based; conditions: hamster, BHK21 cells, read-out: CC50/μM (toxicity)
Method: The term “CC50” refers to the concentration of an antiviral agent that causes 50% loss of cell viability.
BHK21 cells (MEM with 2% FBS) were incubated with varying concentrations of inhibitor in a 96-well white plate for 24 hours at 37 degrees C. and 5% CO2. CellTiter-Glo (Promega) solution was used to measure viability following the manufacturer's instructions. Luminescence was measured using a Biotek Synergy plate reader. Data were plotted versus the log10 inhibitor concentration, and non-linear regression analysis (Graphpad Prism) was used to determine CC50 values, defined as the inhibitor concentration required to cause 50% loss of cell viability. The maximum concentration tested was 100 μM. Values presented in Table 1 are the average of two or more independent experiments.

DENV [3] = assay: PRNT plaque reduction assay; format: cell-based; conditions: Dengue virus; plaque reduction by 50%; virus not given
Method: For plaque reduction assays, DENV1, 2, 3, 4 were tested on BHK-21 cells, and ZIKV was tested on Vero cells. Vims inocula were diluted in EBSS to 2500 pfu/ml as the final concentration, and were pre-incubated with different concentrations of small molecule inhibitors (2% DMSO vol/vol final concentration) for 45 min at 37° C., 5% CO2. The mixture (200 μl, 500 pfu of virus) was then added to cells for 1 hour (37° C., 5% CO2) to allow infection, after which the inoculum was removed, and the cells were washed with 1×PBS to remove unbound virus and compound. Cells were overlaid with carboxylmethylcellulose and incubated at 37° C., 5% CO2 to allow the formation of plaques (4 days for DENV1, 2, 3, 4 and 2-3 days for ZIKV). The cells were fixed and plaques visualized by staining of the cell monolayers with crystal violet. Empirical analysis was performed to determine the PRNT50 value, defined as the inhibitor concentration needed to reduce plaque formation by 50%.

DENV [4] = assay: Antiviral activity: viral infectivity assay (single-cycle viral yield); format: cell-based; conditions: Dengue virus; concentration that reduces single-cycle viral yield by 10-fold
Method: The term “IC90” refers to the concentration of an antiviral agent that reduces single-cycle viral yield by 10-fold.
For the viral infectivity assay, virus inocula were diluted in EBSS to achieve a multiplicity of infection (MOI) of 1, and were pre-incubated with the given small molecule at varying concentrations for 45 min at 37° C. The mixture was then added to cells for 1 hour at 37° C. to allow infection, after which the inoculum was removed and the cells were washed with 1×PBS to remove unbound virus and compound. Cells were overlaid with medium lacking inhibitor and incubated at 37° C. for 20-24 hours, corresponding to a single cycle of infection. Culture supernatants were harvested at this time, and the yield of infectious particles produced was quantified by plaque-forming assay. For initial antiviral screening of HTS “hits,” compounds were tested for activity at 3 and 10 μM. For IC90 value determination, viral yield (plaque-forming units per milliliter) was plotted versus the log of the inhibitor concentration, and non-linear regression analysis of the data (Graphpad Prism) was performed to determine the concentration at which viral yield is reduced 10-fold.

VSV-eGFP = VSV-eGFP counter screen; format: cell-based
[5] = TX, in the presence of 0.01% Triton X-100

Row | Structure (SMILES) | IC50 (His6-tagged DENV2 sE2) [nM] | IC50 (AmpC β-lactamase; No TX, without Triton X-100) [µM] | IC50 (AmpC β-lactamase; [5]) [µM] | CC50 at 24 h [2] [µM] | EC50 (DENV [3]) [µM] | IC90 (DENV [4]) [nM] | other results
1 | NC(=O)c1cccc(-c2cc(Nc3ccc(OC(F)(F)F)cc3)ncn2)c1 [GNF2, reference compound] | – | – | – | – | – | – | competition of AlphaScreen signal (His6-tagged DENV2 sE2; GNF2-biotin on donor beads, His6-tagged DENV2 sE2 on acceptor beads): competed away in a dose-dependent fashion
2 | O=C(Nc1ccc(Oc2ccc(Cl)cc2)c(Cl)c1)c1cc(I)cc(I)c1O | 800 | – | – | – | – | – | –
3 | Cc1cc(C(C#N)c2ccc(Cl)cc2)c(Cl)cc1NC(=O)c1cc(I)cc(I)c1O (stereo not drawn) [S4105] | – | 0.3 | > 100 | ~50 | 0.3 | – | Vd [1]: 0.06 L/kg; absorption of intraperitoneal (IP) dose ([1]; ip): well absorbed; concentration at 8 h ([1]; ip, 20 mg/kg): 75 to 200 µM; clearance ([1]; iv): 2.4 mL/h/kg; half-life ([1]; iv): 21 h
4 | Cc1cc(C(C#N)c2ccc(Cl)cc2)c(Cl)cc1NC(=O)c1cc(I)cc(I)c1O (stereo not drawn) [drawing 87] | 800 | – | – | – | – | 1000 | –
5 | O=C(Nc1ccc(Oc2ccc(Cl)cc2)c(Cl)c1)c1cc(F)cc(F)c1O [ZNL-01-132] | 4000 | 38 | > 100 | 44 | 0.5 | – | half-life [1]: 5 to 6 h; concentration at 8 h ([1]; IP 20 mg/kg, 8 hours post dose, read-out: plasma concentration 8 hours after IP dose): ~2 µM; % Inhibition Vs. VSV-eGFP, 2.5 μM (VSV-eGFP; 2.5 μM): 80%; % Inhibition Vs. VSV-eGFP, 5 μM (VSV-eGFP; 5 μM): >90%
6 | Cc1cc(C(C#N)c2ccc(Cl)cc2)c(Cl)cc1NC(=O)c1ccccc1O (stereo not drawn) | 2000 | – | – | – | – | 8000 | –
